Literature values in US8883841B2, “Oncogenic ras-specific cytotoxic compound and methods of use thereof” (The Board of Regents of the University of Texas System, priority 2005, dated 2014).

Test system: wild-type MEF
Details: Winter-Vann et al., 2005; cited from earlier work

CCCCCCCCn1cc(CC(N)=O)c2cc(-c3cccc(C)c3)ccc21 [Cysmethynil, 2-[5-(3-methylphenyl)-1-octyl-1H-indol-3-yl]acetamide]
growth inhibition in wild-type MEF: induce Icmt-dependent growth inhibition
